Patent US6495693B2, “N-(aryl/heteroaryl) amino acid derivatives, pharmaceutical compositions comprising same, and methods for inhibiting β-amyloid peptide release and/or its synthesis by use of such compounds” (Athena Neurosciences, Inc., priority 1996, dated 2002)

First: CCCC[C@H](NC(=O)[C@H](C)Nc1ccc(Cl)c(Cl)c1)C(=O)OC [Example 15, N-[N-(3,4dichlorophenyl)-L-alanyl]-(S)-2-aminohexanoic acid methyl ester]
Second: COC(=O)[C@H](CC(C)C)NC(=O)[C@H](C)Nc1ccc(Cl)c(Cl)c1 [Example 11, N-[N-(3,4dichlorophenyl)-L-alanyl]-L-leucine methyl ester]
The melting point of the first is higher: 163 to 165 °C for the first, 120 to 132 °C for the second.

`CC(Nc1ccc(Cl)c(Cl)c1)C(=O)N[C@H](C(=O)N(C)C)C(C)C` (mixture of isomers) [Example 8, N-[N-(3,4-dichlorophenyl)-D,L-alanyl]-L-valine N,N-dimethyl amide] and `CC(Nc1ccc(Cl)c(Cl)c1)C(=O)NC(=O)[C@@H](N)C(C)C` (mixture of isomers) [Example 6, N-[N-(3,4dichlorophenyl)-D,L-alanyl]-L-valine amide] cannot be ordered by melting point: 145 to 160 °C for the first, 156 to 158 °C for the second.

`CCCC[C@H](NC(=O)C(C)Nc1cc(F)cc(F)c1)C(=O)OC` (mixture of isomers) [Example 50, N-[N-(3,5-difluorophenyl)-D,L-alanyl]-(S)-2-aminohexanoic acid methyl ester] and `COC(=O)[C@H](C)NC(=O)C(C)Nc1cc(F)cc(F)c1` (mixture of isomers) [Example 49, N-[N-(3,5-difluorophenyl)-D,L-alanyl]-L-alanine methyl ester] fall in the same range of melting point: 93 to 95 °C for the first, 93 to 95 °C for the second.

Compared with `CCCC[C@H](NC(=O)[C@H](C)Nc1nc2ccccc2s1)C(=O)OC` [Example 48, N-[N-(benzothiazol-2-yl)-L-alanyl]-(S)-2-aminohexanoic acid methyl ester], `COC(=O)[C@H](Cc1ccccc1)NC(=O)[C@H](C)Nc1ccc(Cl)c(Cl)c1` [Example 12, N-[N-(3,4-dichlorophenyl)-L-alanyl]-L-phenylalanine methyl ester] is higher in melting point: 99 to 120 °C for the first, 122 to 124.5 °C for the second.

`COC(=O)[C@H](Cc1c[nH]c2ccccc12)NC(=O)C(C)Nc1ccc(Cl)c(Cl)c1` (mixture of isomers) [Example 16, N-[N-(3,4dichlorophenyl)-D,L-alanyl]-L-tryptophan methyl ester] and `COC(=O)[C@H](Cc1c[nH]cn1)NC(=O)C(C)Nc1ccc(Cl)c(Cl)c1` (mixture of isomers) [Example 46, N-[N-(3,4-dichlorophenyl)-D,L-alanyl]-L-histidine methyl ester] cannot be ordered by melting point: 54 to 66 °C for the first, 55 to 60 °C for the second.

First: COC(=O)[C@H](CC(=O)O)NC(=O)C(C)Nc1ccc(Cl)c(Cl)c1 (mixture of isomers) [Example 18, N-[N-(3,4dichlorophenyl)-D,L-alanyl]-L-aspartic acid methyl ester]
Second: CCCC[C@H](N)C(=O)NC(=O)[C@H](C)Nc1ccc(Cl)c(Cl)c1 [Example 51, N-[N-(3,4dichlorophenyl)-L-alanyl]-(S)-2-aminohexanamide]
The melting point of the first is lower: 53.5 to 56 °C for the first, 184 to 186 °C for the second.

First: CC(Nc1ccc(Cl)c(Cl)c1)C(=O)NC(=O)[C@@H](N)Cc1ccccc1 (mixture of isomers) [Example 36, N-[N-(3,4dichlorophenyl)-D,L-alanyl]-L-phenylalanine amide]
Second: CCCC[C@H](N)C(=O)NC(=O)[C@H](C)Nc1ccc(Cl)c(Cl)c1 [Example 40, N-[N-(3,4-dichlorophenyl)-L-alanyl]-(S)-2-aminohexanamide]
The melting point of the first is higher: 177 to 179 °C for the first, 156 to 161 °C for the second.
